Reference: ChEMBL document CHEMBL1156361, “Structure-activity relationship of in vitro antiviral and cytotoxic activity of semisynthetic analogues of scopadulane diterpenes” (J Nat Prod, 2001)
In brackets after ≈: the same amount, converted by molar mass. Activity calls are given as the source filed them. The calls are words filed in the database; no cut-off is given here.

Legend:
Vero = test: Cytotoxicity against african green monkey Vero cells by end-point titration technique; type: cell-based; settings: chlorocebus sabaeus
Human alphaherpesvirus 2 [1] = test: Antiviral activity against Herpes simplex virus 2 infected in african green monkey Vero cells assessed as ratio of the viral titers in absence to presence of drug after 48 hrs by end-point titration technique; type: functional
Human alphaherpesvirus 2 [2] = test: Antiviral activity against Herpes simplex virus 2 infected in african green monkey Vero cells assessed as maximal nontoxic dose that showed the highest viral reduction factor after 48 hrs by end-point titration technique; type: functional
CHO = test: Cytotoxicity against CHO cells after 48 hrs; type: cell-based, Cricetulus griseus; settings: chinese hamster
[3] = Cytotoxicity against bovine Bon-Fib cells after 48 hrs; type: cell-based, Bos taurus; settings: cattle
Human alphaherpesvirus 2 [4] = test: Antiviral activity against Herpes simplex virus 2 infected in african green monkey Vero cells assessed inhibition of virus-induced effect after 48 hrs by MTT assay; type: functional, organism-based; settings: Human alphaherpesvirus 2, Vero
HeLa = test: Cytotoxicity against human HeLa cells after 48 hrs; type: functional
HEp-2 = test: Cytotoxicity against human Hep2 cells after 48 hrs; type: functional
[5] = Cytotoxicity against african green monkey Vero cells by MTT assay; type: cell-based; settings: chlorocebus sabaeus
[6] = Therapeutic index, ratio of CC50 for african green monkey Vero cells to IC50 for Herpes simplex virus 2 by MTT assay; type: cell-based; settings: read-out: Ratio CC50/IC50

Compound | CC100 (Vero) [µg/mL] | Ratio (Human alphaherpesvirus 2 [1]) | Activity (Human alphaherpesvirus 2 [2]) | CC100 (CHO) [µg/mL] | CC100 [3] [µg/mL] | IC50 (Human alphaherpesvirus 2 [4]) [µg/mL] | CC100 (HeLa) [µg/mL] | CC100 (HEp-2) [µg/mL] | CC50 [5] [µg/mL] | selectivity ratio [6]
CC1(C)CCC[C@@]2(C)[C@H]1CC[C@@]13CC(=O)[C@]4(C)CC1[C@]32C4 | 40 | 10 | 20 µg/mL | – | – | – | – | – | – | –
CC1(C)CCC[C@@]2(C)[C@H]1C[C@H](O)[C@H]1C[C@@H](O)[C@]3(C)CC[C@]12C3 [THYRSIFLORIN C] | 30 | inactive | inactive | 45 | 60 | – | – | – | – | –
Nc1nc2c(ncn2COCCO)c(=O)[nH]1 [ACYCLOVIR] | > 600 | 100000 | 6 µg/mL | – | – | 4.21 (≈ 18.7 µM) | – | – | – | –
COC(=O)CC(=O)O[C@@H]1C[C@@H]2[C@@H](OC(C)=O)C[C@H]3C(C)(C)CCC[C@]3(C)[C@]23CC[C@]1(C)C3 [METHYL THYRSIFLORIN B ACETATE] | 30 | 5 | 15 µg/mL | 30 | 60 | – | 30 | 30 | – | –
CC(=O)O[C@H]1C[C@H]2C(C)(C)CCC[C@]2(C)[C@@]23CC[C@](C)(C2)[C@@H](O)C[C@H]13 | 50 | 10 | 25 µg/mL | – | – | – | – | – | – | –
CC1(C)CCC[C@@]2(C)[C@H]1CCC1=CC(=O)[C@]3(C)CC[C@]12C3 | 40 | 100 | 20 µg/mL | – | – | 32.4 (≈ 113 µM) | – | – | 23.2 (≈ 81 µM) | 0.72
CC(=O)O[C@H]1C[C@H]2C(C)(C)CCC[C@]2(C)[C@@]23CC[C@](C)(C2)[C@H](OC(C)=O)C[C@H]13 [THYRSIFLORIN C DIACETATE] | 50 | 5 | 10 µg/mL | 40 | 60 | – | – | – | – | –
CC1(C)CCC[C@@]2(C)[C@H]1CC[C@H]1CC(=O)[C@]3(C)CC[C@]12C3 | 28 | 100 | 14 µg/mL | 24 | 24 | 21 (≈ 72.9 µM) | – | – | 16.7 (≈ 57.9 µM) | 0.81
CC1(C)CCC[C@@]2(C)[C@H]1CC[C@H]1C[C@@H](O)[C@]3(C)CC[C@]12C3 | 32 | 100 | 7.5 µg/mL | – | – | 16.5 (≈ 56.8 µM) | – | – | 19.5 (≈ 67.1 µM) | 1.25
CC1(C)CCC[C@@]2(C)[C@H]1C[C@H](O)[C@H]1CC(=O)[C@]3(C)CC[C@]12C3 | 48 | 5 | 10 µg/mL | – | – | – | – | – | – | –
CC1(C)CCC[C@@]2(C)[C@H]1CCC1=CC(=O)[C@@]3(C)C[C@@]12CC3=O | 60 | 10 | 30 µg/mL | – | – | – | – | – | – | –
CC1(C)CCCC2=C1CC[C@@]13CC[C@](C)(C[C@@]21C)C(=O)C3 | 35 | inactive | inactive | – | – | – | – | – | – | –
CC1(C)CCC[C@@]2(C)[C@H]1C[C@@H](O)C1=CC(=O)[C@]3(C)CC[C@]12C3 | 28 | 10 | 14 µg/mL | 20 | 10 | – | – | – | – | –
CC1(C)CCC[C@@]2(C)[C@H]1C[C@@H](O)[C@@H]1CC(=O)[C@]3(C)CC[C@]12C3 | 60 | 100 | 30 µg/mL | – | – | 42.1 (≈ 138 µM) | – | – | 27.8 (≈ 91.3 µM) | 0.66
COC(=O)CC(=O)O[C@@H]1C[C@@H]2CC[C@H]3C(C)(C)CCC[C@]3(C)[C@]23CC[C@]1(C)C3 [METHYL THYRSIFLORIN A] | 30 | 5 | 15 µg/mL | 28 | 28 | – | – | – | – | –
